Test systems include SF-539 CNS; RXF 393 renal; T-47D breast; 786-0 renal; HOP-92 NSCLC; HOP-62 NSCLC; NCI-H226 lung; OVCAR-4 ovarian; SK-OV-3 ovarian; HS 578T breast.
Common to all, as to assay: NCI-60 cell line screen, 48 h

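96-well plates; 48 h exposure; 5 concentrations. Endpoints by linear interpolation between flanking doses. Not reached: highest tested concentration assigned. The concentration for 50% growth inhibition is given as GI50. TGI is the concentration that stops growth completely.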

Take `O=C(/C=C/c1ccccc1)NNC(=O)c1c(Cl)c(Cl)c(Cl)c(Cl)c1-c1nc2ccccc2[nH]1`: the TGI is over 100 µM with SF-539 CNS; 47.3 µM in the assay with RXF 393 renal; 60.6 µM in the assay with T-47D breast; 73.8 µM in the assay with 786-0 renal; 45.7 µM with HOP-92 NSCLC; 56.5 µM in the assay with HOP-62 NSCLC. The TGI with NCI-H226 lung is over 100 µM; with OVCAR-4 ovarian, over 100 µM; in the assay on SK-OV-3 ovarian it was 54.9 µM.

Take `O=C(C[n+]1ccc2ccccc2c1)c1ccc2ccc3ccccc3c2c1`: the TGI in the assay on SF-539 CNS is 14.2 µM; in the assay with RXF 393 renal, 16.3 µM; in the assay on T-47D breast it was 19.3 µM; with 786-0 renal, 18 µM; with HOP-92 NSCLC, 18.8 µM; in the assay on HOP-62 NSCLC, 21.1 µM. For the same compound, the TGI with NCI-H226 lung stood at 25.3 µM; in the assay on OVCAR-4 ovarian, 19.7 µM; in the assay with SK-OV-3 ovarian, 21 µM; with HS 578T breast, 35.2 µM.

As to `O=c1[nH]nc(NNc2ccccc2)c2nnn(C3CCCCC3)c12`, the TGI in the assay with HOP-92 NSCLC, with HOP-62 NSCLC and in the assay on OVCAR-4 ovarian was over 100 µM in each case.

Take `CCOC(=O)C1=NN(c2ccc(C)cc2)C2=CC(C)=NN(C)C(=S)N21`: the TGI with SF-539 CNS is over 100 µM; in the assay on RXF 393 renal, 30.1 µM; with T-47D breast, 61.3 µM; with OVCAR-4 ovarian, over 100 µM; with SK-OV-3 ovarian it was over 100 µM; in the assay on HS 578T breast it was over 100 µM.

For the compound `NCCCCc1cc(O)c2c(c1O)C(=O)c1ccccc1C2=O`, the TGI with SF-539 CNS was determined as 21.8 µM; with RXF 393 renal it was 27.9 µM; in the assay with T-47D breast, 43.3 µM; with 786-0 renal, 19.6 µM; in the assay with HOP-92 NSCLC, 31.1 µM; in the assay with HOP-62 NSCLC, 21.3 µM. For the same compound, the values for the TGI in the assay with NCI-H226 lung, with OVCAR-4 ovarian and with SK-OV-3 ovarian were 19.2 µM, 35 µM and 29.1 µM, respectively.

In the case of `NCCSC(c1ccccc1)c1ccccc1`, the TGI turned out to be 37.2 µM with SF-539 CNS; 39.8 µM in the assay on RXF 393 renal; 32.8 µM in the assay with 786-0 renal; 37.2 µM in the assay with HOP-92 NSCLC; 33.7 µM with HOP-62 NSCLC; 65.6 µM with NCI-H226 lung. For the same compound, the results for the TGI in the assay with OVCAR-4 ovarian, in the assay with SK-OV-3 ovarian and in the assay with HS 578T breast were 46.8 µM, 70.8 µM and 76.5 µM, respectively.

For the compound `Cc1nn(-c2ccccc2)c(C)c1/C=N/N=C1\SCC(=O)N1c1ccccc1`, the TGI with SF-539 CNS is 67.2 µM; in the assay on RXF 393 renal, 42.7 µM; in the assay on T-47D breast, over 100 µM; in the assay with 786-0 renal, 37.7 µM; with HOP-62 NSCLC it was 86.8 µM; with NCI-H226 lung, 66.5 µM. Moreover, the TGI in the assay with OVCAR-4 ovarian was 41.7 µM; in the assay with SK-OV-3 ovarian it was 83 µM; in the assay with HS 578T breast, over 100 µM.

With `COc1cc2c(cc1O)CC[C@@H]1[C@@H]2CC[C@]2(C)[C@@H](OCCN(C)C)CC[C@@H]12`, the GI50 is 0.129 µM in the assay with SF-539 CNS; 0.389 µM in the assay with HOP-62 NSCLC; 1.17 µM in the assay on NCI-H226 lung; 0.306 µM with OVCAR-4 ovarian; 0.356 µM in the assay on SK-OV-3 ovarian; 0.463 µM in the assay on HS 578T breast. The TGI with SF-539 CNS turned out to be 0.414 µM; in the assay with HOP-62 NSCLC, 1.66 µM; with NCI-H226 lung, 6.04 µM; with OVCAR-4 ovarian it was 5.84 µM; with SK-OV-3 ovarian, 2.11 µM; in the assay on HS 578T breast, 4 µM.

With `CC(=O)C1=C(C)N(c2ccc(C)cc2)C2(O)C=CC(=O)C3C(=O)N(c4ccccc4)C(=O)C132` (centres undefined), the TGI with SF-539 CNS was 65.2 µM; with RXF 393 renal, 54.3 µM; in the assay with T-47D breast, 54.6 µM; with 786-0 renal it was over 100 µM; with HOP-92 NSCLC, 43.1 µM; with HOP-62 NSCLC, over 100 µM. Further, the TGI in the assay with NCI-H226 lung is 34.3 µM; in the assay on OVCAR-4 ovarian it was 41.2 µM; with HS 578T breast it was over 100 µM.

Turning to `CC12CC3OC(=O)C1COC14OC5(C2C1=O)C(O)(CCC1C4CC(O)C2(O)CC=CC(=O)C12C)C(=O)OC35C` (centres undefined), the TGI in the assay on SF-539 CNS, with T-47D breast, in the assay with 786-0 renal, with HOP-92 NSCLC, in the assay on NCI-H226 lung and in the assay with OVCAR-4 ovarian was over 100 µM throughout. For the same compound, the TGI in the assay with SK-OV-3 ovarian and with HS 578T breast was over 100 µM each time.

Consider `CCC1CN(C(=O)c2ccccc2)C(Cc2c[nH]c3ccccc23)C(=O)C1CC(=O)OC` (centres undefined), for which the TGI with SF-539 CNS, with RXF 393 renal, in the assay with T-47D breast, in the assay with HOP-92 NSCLC, in the assay with HOP-62 NSCLC and in the assay with NCI-H226 lung was over 100 µM in each case. The TGI in the assay on OVCAR-4 ovarian, with SK-OV-3 ovarian and with HS 578T breast was over 100 µM throughout.

As to `CCC(C)C1=C(OC(C)=O)[N+]2([O-])Oc3ccc(-c4c(OC(C)=O)c(OC(C)=O)c(-c5ccc(OC(C)=O)cc5)c(OC(C)=O)c4OC(C)=O)cc3OC2(C(C)CC)C(=O)N1OC(C)=O` (centres undefined), the TGI with SF-539 CNS was over 50 µM; in the assay with RXF 393 renal, over 50 µM; with T-47D breast, 24.8 µM; with 786-0 renal it was 24 µM; in the assay with NCI-H226 lung it was over 50 µM; with OVCAR-4 ovarian it was 38 µM. The same compound registered a TGI in the assay on SK-OV-3 ovarian of over 50 µM.

For the compound `CCN(CC(=O)O)C(=O)c1cccnc1`, the TGI in the assay on RXF 393 renal, in the assay on T-47D breast, in the assay with 786-0 renal, with HOP-92 NSCLC, with HOP-62 NSCLC and in the assay with OVCAR-4 ovarian was over 100 µM each time. In the assay with HS 578T breast, this compound registered a TGI of over 100 µM.

Consider `NC(=O)c1c(NC(=O)c2ccccn2)sc2c1CCC(=O)C2`, for which the GI50 in the assay on RXF 393 renal was 3.53 µM; in the assay on T-47D breast, 2.48 µM; with HOP-92 NSCLC, 2.75 µM; with HOP-62 NSCLC, over 100 µM; with SK-OV-3 ovarian, over 100 µM; in the assay on HS 578T breast it was 4.22 µM. Moreover, the TGI with RXF 393 renal, in the assay with T-47D breast, in the assay with HOP-92 NSCLC, in the assay on HOP-62 NSCLC, in the assay on SK-OV-3 ovarian and with HS 578T breast was over 100 µM in each case.
